Reference: paper PMC5526999, “Mass Spectrometry Imaging proves differential absorption profiles of well-characterised permeability markers along the crypt-villus axis” (Scientific Reports, 2017)

Tests used:
[1] = MALDI-MSI of drug distribution in rat small intestine after oral cassette administration; format: in vivo; conditions: oral 10 µmol/kg
Procedure: Male rats (Han-Wistar, ~ 100 days old, body-weight ~ 300 g) were used in this study. […] All experiments were performed in accordance with relevant guidelines and regulations, the animal work was approved by the Local Animal Research Ethics Board of Gothenburg, Sweden. […] Four animals were dosed in this study, and non-dosed tissue was prepared from control rats in parallel. […] Therefore, in the present study we focussed on the concept of “vertical” absorption gradients along the crypt-villous axis, which has not been studied earlier. The intestine was removed under anaesthesia using isoflurane (Forene, Abbott, USA), to ensure full viability and oxygenation of the tissue until the moment of excision. Animals were sacrificed without regaining consciousness by aortal incision and an overdose of isoflurane. Immediately after excision, intestines were divided into 10 cm long segments and each segment was carefully washed with Krebs-Bicarbonate-Ringer buffer (KBR) from the stomach to the large intestine (additional information in Supplementary Data). The first 5–10 mm of each segment were cut, quickly weighed and collected in homogenization tubes for subsequent extraction and LCMS analysis of total drug concentration in the gut-wall. The next 8–9 cm of each segment were prepared for MALDI-MSI analysis. […] The CMC gels quickly on wet-ice/isopropanol and provides tissue support during the subsequent cryosectioning. All samples were stored at −20 °C until cryosectioning. The embedded samples were attached and positioned with OCT-compound (TissueTek) to the specimen holder of a microtome (Cryo-Star HM 560 M, Microm International, Germany) set to −20 °C. The samples were sectioned at 10 µm thickness. […] A control tissue section from the same intestinal region from non-dosed animal was placed on each slide to enable a direct comparison to be made. All slides were kept at −80 °C until MALDI-MSI analysis. Tissue sections were also stained using haematoxylin and eosin (H&E) following a standard histological protocol for fresh frozen tissues. […] Additional optimization was performed using a robotic matrix sprayer (TM-Sprayer, HTX Technologies, USA) in order to minimize delocalization and crystal size, while still maintaining adequate extraction of compound from the tissue. […] An optical image (9600 dpi) of the glass slide was acquired using a flatbed scanner (Epson perfection V500). The tissue sections were coated with DHB (35 mg/ml, 70% ACN, 0.2% TFA) using a robotic sprayer with a flow of rate 70 µl/min, stage speed of 1100 mm/min, track spacing of 2 mm (crisscross pattern), nitrogen pressure 6 psi, and spray nozzle temperature set to 95 °C for 8 passes. […] FlexImaging 4.0 (Bruker Daltonics) and msIQuant 2.0 was used for data analysis, normalization (to total ion count) and ion image extraction.

[2] = LC-ESI MS/MS quantification of drug concentration in intestinal tissue homogenates after oral cassette administration; format: in vivo, rat
Procedure: Male rats (Han-Wistar, ~ 100 days old, body-weight ~ 300 g) were used in this study. […] All experiments were performed in accordance with relevant guidelines and regulations, the animal work was approved by the Local Animal Research Ethics Board of Gothenburg, Sweden. […] Four animals were dosed in this study, and non-dosed tissue was prepared from control rats in parallel. […] Therefore, in the present study we focussed on the concept of “vertical” absorption gradients along the crypt-villous axis, which has not been studied earlier. The intestine was removed under anaesthesia using isoflurane (Forene, Abbott, USA), to ensure full viability and oxygenation of the tissue until the moment of excision. Animals were sacrificed without regaining consciousness by aortal incision and an overdose of isoflurane. Immediately after excision, intestines were divided into 10 cm long segments and each segment was carefully washed with Krebs-Bicarbonate-Ringer buffer (KBR) from the stomach to the large intestine (additional information in Supplementary Data). The first 5–10 mm of each segment were cut, quickly weighed and collected in homogenization tubes for subsequent extraction and LCMS analysis of total drug concentration in the gut-wall. The next 8–9 cm of each segment were prepared for MALDI-MSI analysis. […] The CMC gels quickly on wet-ice/isopropanol and provides tissue support during the subsequent cryosectioning. All samples were stored at −20 °C until cryosectioning. […] The supernatants were transferred to fresh vials and centrifuged again under the same conditions. […] The samples were analysed by LC-MS/MS and quantified against a calibration standard curve. The LC-MS/MS analysis was performed using an electrospray ionization tandem quadrupole mass spectrometer (Quattro Premier, Waters, USA) in positive ionization mode. The mass spectrometer was integrated with an ultra-performance liquid chromatography (UPLC) system (Acquity, Waters) assisted with a column manager. Chromatography was performed on a column (Acquity UPLC HSS T3, 2.1 × 50 mm) at 40 °C. The flow rate was 1000 µL/min and the injection volume was 5 µL. The mobile phases consisted of A: water, 0.2% (v/v) formic acid and 2% (v/v) acetonitrile and B: acetonitrile, 0.2% (v/v) formic acid. […] Data was acquired using multiple reaction monitoring (MRM) and mass transitions determined by QuanOptimize (Waters). Instrument control and data processing was performed using MassLynx 4.1 software including QuanLynx (Waters).

[3] = test system: Caco-2; set-up: method as in PMID 1673839, PMID 11259831, PMID 9523990; conditions: ref [1], [15] and [48]; cited from earlier work
[4] = set-up: method as in PMID 1673839, PMID 11259831, PMID 9523990; conditions: ref [1], [15] and [48]; cited from earlier work
[5] = no reference given; cited from earlier work
[6] = 20 min, 30 cm along the intestine, line graph along crypt-villus axis
[7] = oral 10 µmol/kg, 20 min post administration

SMILES | lower level at 45 min compared to 20 min (MSI) ([1]; 40 cm sample) | distance from the villus tips of significant reduction in abundance [1, 6] | lower tissue concentration at 45 min compared to 20 min (LC-MS/MS) ([2]; oral 10 µmol/kg, 40 cm sample) | intestinal sample with highest concentration [2, 7] [cm] | Caco-2 Papp [3] | Ion Class [4] | distance over which the gradient from villus tip towards crypt region runs [1, 6] [µm] | lower tissue concentration at 45 min compared to 20 min (LC-MS/MS) ([2]; male, Han-Wistar, rat, in vivo, po) | Tmax in the rat [5] [min] | intensity profile from villus tip to base (line graph) ([1]; 20 min, 30 cm along the intestine) | localisation across and within the villi (transverse profile) ([1]; 20 min, profile perpendicular to the villus axis) | distance from the pyloro-duodenal junction of highest concentration (LC-ESI MS/MS homogenates) ([2]; oral 1 µmol/kg, 20 min post administration) [cm]
CC(C)NCC(O)COc1cccc2ccccc12 (stereo not drawn) [Propranolol] | about 3 fold | 400–500 µm | about 3 fold | 30 | 41.9 1E-6.cm/s | Base |  |  |  |  |  | 
COCCc1ccc(OCC(O)CNC(C)C)cc1 (stereo not drawn) [Metoprolol] |  |  |  |  | 27.0 1E-6.cm/s |  | 200 | about 3 fold | < 20 |  |  | 
CC(C)NCC(O)COc1ccc(CC(N)=O)cc1 (stereo not drawn) [Atenolol] |  |  |  | 20 |  | Base |  |  |  | maintain similar intensities all the way from the villus tip to the basal regions | localized primarily between the villi | 50
